The text below walks through data of patent US20200223889A1, “Bicyclic Compounds Capable of Binding to Melanocortin 4 Receptor” (Novo Nordisk A/S, priority 2017, published 2020).

In one assay the target is T1, human MC1R (Homo sapiens, UniProt Q01726).
T1 construct: expressed in transfected cells
Kind of assay: Functional cAMP assay (CisBio HTRF) in BHK cells expressing human MC1R. It counts as cell-based. Summed up:
(§1)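 Compound working solutions, 10-fold dilutions from 2 μM at twice final strength, in buffer containing 1 mM IBMX, were incubated 30 min at 25 °C with BHK cells stably carrying human MC4R or MC1R. Accumulated cAMP was then detected by competitive HTRF after 1 h at 25 °C and fitted by non-linear regression.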
On the technique in general: Changes in cAMP serve as a functional read-out for many G protein-coupled receptors.

The target in assay [1] is T2, human MC4R (Homo sapiens, UniProt P32245).
T2 construct: expressed in transfected cells
The assay is described as follows: 125NDP-α-MSH competitive binding to membranes of BHK cells expressing human MC4 receptor (filtration assay). Summed up:
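Displacement of ^125NDP-α-MSH (apx. […] final) was measured by filtration after 2 h at 25 °C, using diluted membranes of stably transfected BHK cells in pH 7.0 HEPES buffer. Compounds spanned 1 μM to 0.001 nM; binding curves were analysed by non-linear regression.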

Assay [2] concerns the target T2, human MC4R. Kind of assay: Functional cAMP assay (CisBio HTRF) in BHK cells expressing human MC4R. It counts as cell-based. As to conditions: for MC1R/MC4R cAMP EC50 ratio: MC1R cAMP EC50 divided by MC4R cAMP EC50. Summed up: as §1
Where [3] appears, read: BHK cells expressing human MC1R, '>' = highest dose used with no response, read-out: MC1R cAMP EC50.
Setting [4] is: human MC4R, BHK cell membranes, 125NDP-α-MSH radioligand, read-out: MC4R binding Ki.
The mark [5] stands for this setting: BHK cells expressing human MC4R, '>' = highest dose used with no response, read-out: MC4R cAMP EC50.

Like-named read-outs stand apart in the source and are kept apart here. Positions of bridges follow the written chain, without caps; N, C: chain ends. Non-standard residues stand in square brackets, D forms with d. Residues, ends and D or L forms follow the SMILES beside them. Phe(3,4-Cl2) = N[C@@H](Cc1ccc(Cl)c(Cl)c1)C(=O)O; hCit = NC(=O)NCCCC[C@H](N)C(=O)O; Pip = O=C(O)[C@@H]1CCCCN1; Thz = O=C(O)[C@@H]1CSCN1; GABA = NCCCC(=O)O; Sar = CNCC(=O)O Bounds are passed on as bounds.

Broadly, the EC50 is the concentration needed to bring the measured effect to its halfway point. As a reminder, the Ki is a measure of affinity in units of concentration, obtained from inhibition or displacement.

T1 sequence (Q01726 whole entry): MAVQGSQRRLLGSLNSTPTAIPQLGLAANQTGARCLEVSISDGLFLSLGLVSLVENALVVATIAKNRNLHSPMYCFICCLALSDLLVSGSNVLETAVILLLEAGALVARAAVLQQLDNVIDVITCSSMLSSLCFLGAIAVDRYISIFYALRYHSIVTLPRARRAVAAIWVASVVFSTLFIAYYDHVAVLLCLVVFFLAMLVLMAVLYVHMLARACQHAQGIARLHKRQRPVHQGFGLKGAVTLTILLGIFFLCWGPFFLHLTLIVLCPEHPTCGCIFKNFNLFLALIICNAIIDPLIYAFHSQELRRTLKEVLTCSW
T2 sequence (P32245 whole entry): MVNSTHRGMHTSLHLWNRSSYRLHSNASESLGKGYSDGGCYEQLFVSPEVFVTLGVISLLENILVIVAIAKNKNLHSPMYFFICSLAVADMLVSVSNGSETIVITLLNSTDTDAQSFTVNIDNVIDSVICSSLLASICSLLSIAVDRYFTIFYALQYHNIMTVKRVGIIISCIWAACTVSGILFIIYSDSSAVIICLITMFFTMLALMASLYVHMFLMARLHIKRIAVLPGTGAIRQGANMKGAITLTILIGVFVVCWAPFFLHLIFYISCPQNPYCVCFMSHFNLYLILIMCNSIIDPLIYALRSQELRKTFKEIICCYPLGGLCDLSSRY

As for `C[C@@H]1NC(=O)[C@@H]2CSSC[C@H](NC(=O)[C@H](Cc3c[nH]c4ccccc34)NC(=O)[C@H](CCCNC(=N)N)NC(=O)[C@@H](Cc3ccccc3)NC(=O)[C@H](Cc3c[nH]cn3)NC1=O)C(=O)N[C@@H](C)C(=O)N[C@@H](CCC(=O)O)C(=O)N[C@@H](CCC(=O)O)C(=O)N[C@@H](CCC(=O)O)C(=O)N[C@@H](Cc1c[nH]c3ccccc13)C(=O)N2` [Chem. 44, c[c[Cys-Ala-His-D-Phe-Arg-Trp-Cys]- Ala-Glu-Glu-Glu-Trp]] (cyclo(AEEEWCAH[dF]RWC); disulfide 6-12), the results for the EC50 on human MC1R and at human MC4R [2] were 31.9 nM and 1.53 nM, respectively. For the same compound, the affinity at human MC4R [1], expressed as Ki, was 50.9 nM. Further, the “MC1R/MC4R cAMP EC50 ratio” value on human MC4R [2] was 21.
As for `C[C@@H]1NC(=O)[C@@H]2CSSC[C@H](NC(=O)[C@H](CCCNC(=N)N)NC(=O)[C@H](CCCCN)NC(=O)[C@H](CCCCN)NC(=O)[C@H](CCCCN)NC1=O)C(=O)N(C)CC(=O)N[C@@H](Cc1c[nH]cn1)C(=O)N[C@H](Cc1ccccc1)C(=O)N[C@@H](Cc1c[nH]cn1)C(=O)N[C@@H](Cc1c[nH]c3ccccc13)C(=O)N2` [Chem. 74, c[c[Cys-Sar-His-D-Phe-His-Trp-Cys]- Ala-Lys-Lys-Lys-Arg]] (cyclo(AKKKRC[Sar]H[dF]HWC); disulfide 6-12), the values for the EC50 on human MC1R (setting [3]) and at human MC4R [2] (setting [5]) were greater than 5.5 nM and 0.29 nM, respectively. For the same compound, the Ki at human MC4R [1] (setting [4]) is 0.08 nM. Further, the “MC1R/MC4R cAMP EC50 ratio” value on human MC4R [2] was found to be 19.
As to `C[C@@H]1NC(=O)[C@@H]2CSSC[C@H](NC(=O)[C@H](Cc3c[nH]c4ccccc34)NC(=O)[C@H](CCCNC(=N)N)NC(=O)[C@@H](Cc3ccccc3)NC(=O)[C@H](Cc3c[nH]cn3)NC1=O)C(=O)N1CCC[C@H]1C(=O)N1CCC[C@H]1C(=O)N[C@@H](CCC(=O)O)C(=O)N[C@@H](CCCNC(=N)N)C(=O)N[C@@H](Cc1c[nH]c3ccccc13)C(=O)N2` [Chem. 112, c[c[Cys-Ala-His-D-Phe-Arg-Trp-Cys]- Pro-Pro-Glu-Arg-Trp]] (cyclo(AH[dF]RWCPPERWC); disulfide 6-12), the figures for the EC50 on human MC1R (setting [3]) and on human MC4R [2] (setting [5]) were 30.2 nM and 0.19 nM, respectively. On human MC4R [1] (setting [4]), the Ki amounted to 1.21 nM. Moreover, the “MC1R/MC4R cAMP EC50 ratio” value on human MC4R [2] stood at 159.
For `N=C(N)NCCC[C@@H]1NC(=O)[C@@H](Cc2ccccc2)NC(=O)[C@H](Cc2c[nH]cn2)NC(=O)CCCNC(=O)[C@@H]2CSSC[C@H](NC(=O)[C@H](Cc3c[nH]c4ccccc34)NC1=O)C(=O)NCCCC(=O)N[C@@H](Cc1c[nH]cn1)C(=O)N[C@H](Cc1ccccc1)C(=O)N[C@@H](CCCNC(=N)N)C(=O)N[C@@H](Cc1c[nH]c3ccccc13)C(=O)N2` [Chem. 35, c[c[Cys-GABA-His-D-Phe-Arg-Trp- Cys]-GABA-His-D-Phe-Arg-Trp]] (cyclo(C[GABA]H[dF]RWC[GABA]H[dF]RW); disulfide 1-7), the figures for the EC50 at human MC1R (setting [3]) and at human MC4R [2] (setting [5]) were 0.28 nM and 0.01 nM, respectively. At human MC4R [1] (setting [4]), the Ki stood at 0.03 nM. In addition, the “MC1R/MC4R cAMP EC50 ratio” value at human MC4R [2] is on record as 28.
Consider `C[C@@H]1NC(=O)[C@H](C)NC(=O)[C@@H]2CSSC[C@H](NC(=O)[C@H](CCCNC(=N)N)NC(=O)[C@H](C)NC(=O)[C@@H](C)NC1=O)C(=O)N[C@@H](C)C(=O)N[C@@H](Cc1c[nH]cn1)C(=O)N[C@H](Cc1ccccc1)C(=O)N[C@@H](CCCNC(=N)N)C(=O)N[C@@H](Cc1c[nH]c3ccccc13)C(=O)N2` [Chem. 90, c[c[Cys-Ala-His-D-Phe-Arg-Trp-Cys]- Ala-Ala-D-Ala-Ala-Arg]] (cyclo(AA[dA]ARCAH[dF]RWC); disulfide 6-12), for which the EC50 at human MC1R was determined as 0.65 nM. Moreover, at human MC4R [1], affinity was put at a Ki of 0.11 nM. Also, on human MC4R [2], the EC50 was determined as 0.01 nM and the “MC1R/MC4R cAMP EC50 ratio” value is listed as 65.
Consider `C[C@@H]1NC(=O)[C@@H]2CSSC[C@H](NC(=O)[C@H](Cc3c[nH]c4ccccc34)NC(=O)[C@H](CCCCN)NC(=O)[C@H](CCCCN)NC(=O)[C@H](CCCCN)NC1=O)C(=O)N1CCCC[C@H]1C(=O)N[C@@H](Cc1c[nH]cn1)C(=O)N[C@H](Cc1ccccc1)C(=O)N[C@@H](Cc1c[nH]cn1)C(=O)N[C@@H](Cc1c[nH]c3ccccc13)C(=O)N2` [Chem. 83, c[c[Cys-PIP-His-D-Phe-His-Trp-Cys]- Ala-Lys-Lys-Lys-Trp]] (cyclo(AKKKWC[Pip]H[dF]HWC); disulfide 6-12), for which the EC50 at human MC1R (setting [3]) is greater than 10 nM. The Ki on human MC4R [1] (setting [4]) amounted to 0.17 nM. Also, at human MC4R [2], the “MC1R/MC4R cAMP EC50 ratio” value is listed as greater than 5.
On to `C[C@@H]1NC(=O)[C@@H]2CSSC[C@H](NC(=O)[C@H](Cc3ccc(Cl)c(Cl)c3)NC(=O)[C@H](CCCNC(=N)N)NC(=O)[C@@H](Cc3ccccc3)NC(=O)[C@H](Cc3c[nH]cn3)NC1=O)C(=O)N[C@@H](C)C(=O)N[C@@H](CCCCN)C(=O)N[C@@H](CCCCN)C(=O)N[C@@H](CCCCN)C(=O)N[C@@H](Cc1c[nH]c3ccccc13)C(=O)N2` [Chem. 66, c[c[Cys-Ala-His-D-Phe-Arg-3,4-DiCl- Phe-Cys]-Ala-Lys-Lys-Lys-Trp]] (cyclo(AH[dF]R[Phe(3,4-Cl2)]CAKKKWC); disulfide 6-12), for which the EC50 on human MC1R (setting [3]) worked out at 0.22 nM; at human MC4R [2] (setting [5]), 0.01 nM. On human MC4R [1] (setting [4]), the Ki worked out at 0.03 nM. Besides, the “MC1R/MC4R cAMP EC50 ratio” value at human MC4R [2] is 22.
On to `C[C@@H]1NC(=O)[C@H](C)NC(=O)[C@@H]2CSSC[C@H](NC(=O)[C@H](Cc3c[nH]c4ccccc34)NC(=O)[C@H](C)NC(=O)[C@H](CCCCN)NC1=O)C(=O)N1CSC[C@H]1C(=O)N[C@@H](Cc1c[nH]cn1)C(=O)N[C@H](Cc1ccccc1)C(=O)N[C@@H](Cc1c[nH]cn1)C(=O)N[C@@H](Cc1c[nH]c3ccccc13)C(=O)N2` [Chem. 109, c[c[Cys-THAZ-His-D-Phe-His-Trp- Cys]-Ala-Ala-Lys-Ala-Trp]] (cyclo(AAKAWC[Thz]H[dF]HWC); disulfide 6-12), for which the results for the 50% effective concentration (EC50) at human MC1R and on human MC4R [2] were greater than 7 nM and 0.15 nM, respectively. This compound also showed a Ki on human MC4R [1] of 0.3 nM. Besides, the “MC1R/MC4R cAMP EC50 ratio” value at human MC4R [2] is recorded as greater than 47.
Compound `C[C@@H]1NC(=O)[C@@H]2CSSC[C@H](NC(=O)[C@H](Cc3c[nH]c4ccccc34)NC(=O)[C@H](CCCNC(=N)N)NC(=O)[C@@H](Cc3ccccc3)NC(=O)[C@H](Cc3c[nH]cn3)NC1=O)C(=O)N[C@@H](CCCNC(=N)N)C(=O)N[C@@H](Cc1ccccc1)C(=O)N[C@@H](Cc1ccccc1)C(=O)N[C@@H](CC(N)=O)C(=O)N[C@@H](C)C(=O)N2` [Chem. 12, c[c[Cys-Ala-His-D-Phe-Arg-Trp-Cys]- Arg-Phe-Phe-Asn-Ala]] (cyclo(ACAH[dF]RWCRFFN); disulfide 2-8) gave a 50% effective concentration (EC50) on human MC1R of 3.97 nM. On human MC4R [1], this compound had an inhibition constant (Ki) of 0.28 nM. Also, at human MC4R [2], the EC50 was 0.07 nM and the “MC1R/MC4R cAMP EC50 ratio” value worked out at 57.
In the case of `C[C@@H]1NC(=O)[C@@H]2CSSC[C@H](NC(=O)[C@H](CCCNC(=N)N)NC(=O)[C@H](CCCCN)NC(=O)[C@H](CCCCN)NC(=O)[C@H](CCCCN)NC1=O)C(=O)N1CCC[C@H]1C(=O)N[C@@H](Cc1c[nH]cn1)C(=O)N[C@H](Cc1ccccc1)C(=O)N[C@@H](CCCCNC(N)=O)C(=O)N[C@@H](Cc1c[nH]c3ccccc13)C(=O)N2` [Chem. 99, c[c[Cys-Pro-His-D-Phe-Cit-Trp-Cys]- Ala-Lys-Lys-Lys-Arg]] (cyclo(AKKKRCPH[dF][hCit]WC); disulfide 6-12), the EC50 on human MC1R (setting [3]) is 5.29 nM; on human MC4R [2] (setting [5]), 0.39 nM. Also, the Ki at human MC4R [1] (setting [4]) was determined as 0.1 nM. Further, on human MC4R [2], the “MC1R/MC4R cAMP EC50 ratio” value was determined as 14.
